Test results as given in ChEMBL document CHEMBL3244371, “An approach to peripheral vasodilator-beta-adrenergic blocking agents” (J Med Chem, 1977).

Experiments:
Rattus norvegicus [1] = test: Antihypertensive activity in spontaneously hypertensive rat assessed as maximum fall in mean arterial pressure at 0.312 mg/kg, po; format: functional, Artery
Rattus norvegicus [2] = test: Antihypertensive activity in spontaneously hypertensive rat assessed as maximum fall in mean arterial pressure at 1.25 mg/kg, po; format: functional, Artery
Rattus norvegicus [3] = test: Antihypertensive activity in spontaneously hypertensive rat assessed as maximum fall in mean arterial pressure at 5 mg/kg, po; format: functional, Artery
Rattus norvegicus [4] = test: Antihypertensive activity in spontaneously hypertensive rat assessed as duration of effect at 0.312 mg/kg, po; format: functional
Rattus norvegicus [5] = test: Antihypertensive activity in spontaneously hypertensive rat assessed as duration of effect at 1.25 mg/kg, po; format: functional
Rattus norvegicus [6] = test: Antihypertensive activity in spontaneously hypertensive rat assessed as duration of effect at 5 mg/kg, po; format: functional
Canis familiaris [7] = test: Peripheral vasodilating activity in anesthetized trachea-cannulated mongrel dog assessed as increase in iliac blood flow at 60 ug administered intraarterially in presence of isoproterenol; format: functional, Canis lupus familiaris, Artery
Canis familiaris [8] = test: Blockade of isoprolerenol-induced hypotension in iv dosed anesthetized trachea-cannulated mongrel dog assessed as mean arterial pressure; format: functional; conditions: Canis lupus familiaris, Artery
Canis familiaris [9] = test: Blockade of isoprolerenol-induced tachycardia in iv dosed anesthetized trachea-cannulated mongrel dog assessed as heart rate; format: functional; conditions: Canis lupus familiaris
Rattus norvegicus [10] = test: Antihypertensive activity in spontaneously hypertensive rat assessed as maximum fall in mean arterial pressure at 1 mg/kg, po; format: functional, Artery
Rattus norvegicus [11] = test: Antihypertensive activity in spontaneously hypertensive rat assessed as maximum fall in mean arterial pressure at 2 mg/kg, po; format: functional, Artery
Rattus norvegicus [12] = test: Antihypertensive activity in spontaneously hypertensive rat assessed as maximum fall in mean arterial pressure at 8 mg/kg, po; format: functional, Artery
Rattus norvegicus [13] = test: Antihypertensive activity in spontaneously hypertensive rat assessed as duration of effect at 1 mg/kg, po; format: functional
Rattus norvegicus [14] = test: Antihypertensive activity in spontaneously hypertensive rat assessed as duration of effect at 2 mg/kg, po; format: functional
Rattus norvegicus [15] = test: Antihypertensive activity in spontaneously hypertensive rat assessed as duration of effect at 8 mg/kg, po; format: functional
Canis familiaris [16] = test: Peripheral vasodilating activity in anesthetized trachea-cannulated mongrel dog assessed as increase in iliac blood flow at 800 ug administered intraarterially co-treated with 320 ug/kg timolol in presence of isoproterenol; format: functional, Canis lupus familiaris, Artery
Canis familiaris [17] = test: Peripheral vasodilating activity in anesthetized trachea-cannulated mongrel dog assessed as increase in iliac blood flow at 800 ug administered intraarterially in presence of isoproterenol; format: functional, Canis lupus familiaris, Artery
Canis familiaris [18] = test: Peripheral vasodilating activity in anesthetized trachea-cannulated mongrel dog assessed as increase in iliac blood flow at 800 ug administered intraarterially co-treated with 800 ug/kg timolol in presence of isoproterenol; format: functional, Canis lupus familiaris, Artery
Canis familiaris [19] = test: Toxicity in renal hypertensive dog assessed as elevation in heart rate at 4 to 16 mg/kg; format: organism-based, Canis lupus familiaris; parameters: dose 4-16 mg/kg; conditions: in vivo
Rattus norvegicus [20] = test: Antihypertensive activity in spontaneously hypertensive rat assessed as maximum fall in mean arterial pressure at 20 mg/kg, ip; format: functional, Artery; conditions: route intraperitoneal
Rattus norvegicus [21] = test: Antihypertensive activity in spontaneously hypertensive rat assessed as maximum fall in mean arterial pressure at 20 mg/kg, po; format: functional, Artery
Canis familiaris [22] = test: Peripheral vasodilating activity in anesthetized trachea-cannulated mongrel dog assessed as increase in iliac blood flow at 1600 ug administered intraarterially in presence of isoproterenol; format: functional, Canis lupus familiaris, Artery
Canis familiaris [23] = test: Peripheral vasodilating activity in anesthetized trachea-cannulated mongrel dog assessed as increase in iliac blood flow at 1600 ug administered intraarterially co-treated with 2000 ug/kg timolol in presence of isoproterenol; format: functional, Canis lupus familiaris, Artery
Rattus norvegicus [24] = test: Antihypertensive activity in spontaneously hypertensive rat assessed as duration of effect at 20 mg/kg, ip; format: functional; conditions: route intraperitoneal
Canis familiaris [25] = test: Peripheral vasodilating activity in anesthetized trachea-cannulated mongrel dog assessed as increase in iliac blood flow at 1600 ug administered intraarterially co-treated with 800 ug/kg timolol in presence of isoproterenol; format: functional, Canis lupus familiaris, Artery
Rattus norvegicus [26] = test: Antihypertensive activity in spontaneously hypertensive rat assessed as duration of effect at 20 mg/kg, po; format: functional
Canis familiaris [27] = test: Peripheral vasodilating activity in anesthetized trachea-cannulated mongrel dog assessed as increase in iliac blood flow at 8 ug administered intraarterially in presence of isoproterenol; format: functional, Canis lupus familiaris, Artery
Canis familiaris [28] = test: Peripheral vasodilating activity in anesthetized trachea-cannulated mongrel dog assessed as increase in iliac blood flow at 16 ug administered intraarterially in presence of isoproterenol; format: functional, Canis lupus familiaris, Artery
Canis familiaris [29] = test: Peripheral vasodilating activity in anesthetized trachea-cannulated mongrel dog assessed as increase in iliac blood flow at 32 ug administered intraarterially in presence of isoproterenol; format: functional, Canis lupus familiaris, Artery
Canis familiaris [30] = test: Peripheral vasodilating activity in anesthetized trachea-cannulated mongrel dog assessed as increase in iliac blood flow at 8 ug administered intraarterially co-treated with 2000 ug/kg timolol in presence of isoproterenol; format: functional, Canis lupus familiaris, Artery
Canis familiaris [31] = test: Peripheral vasodilating activity in anesthetized trachea-cannulated mongrel dog assessed as increase in iliac blood flow at 16 ug administered intraarterially co-treated with 2000 ug/kg timolol in presence of isoproterenol; format: functional, Canis lupus familiaris, Artery
Canis familiaris [32] = test: Peripheral vasodilating activity in anesthetized trachea-cannulated mongrel dog assessed as increase in iliac blood flow at 32 ug administered intraarterially co-treated with 2000 ug/kg timolol in presence of isoproterenol; format: functional, Canis lupus familiaris, Artery

| SMILES | Activity (Rattus norvegicus [2]) [mmHg] | Activity (Rattus norvegicus [3]) [mmHg] | Time (Rattus norvegicus [5]) [h] | Time (Rattus norvegicus [6]) [h] | ED50 (Canis familiaris [8]) [mg/kg] | ED50 (Canis familiaris [9]) [mg/kg] | Activity (Rattus norvegicus [20]) [mmHg] | Activity (Rattus norvegicus [21]) [mmHg] | Activity (Canis familiaris [22]) [mL/min] | Activity (Canis familiaris [23]) [mL/min] | Time (Rattus norvegicus [24]) [h] | also measured |
| --- | --- | --- | --- | --- | --- | --- | --- | --- | --- | --- | --- | --- |
| CC(C)(C)NC[C@H](O)COc1ccc(-c2nc(C(F)(F)F)c[nH]2)cc1 | 40 | 56 | 18 | >24 | 0.038 | 0.0076 | – | – | – | – | – | Activity (Rattus norvegicus [1]): 24 mmHg; Time (Rattus norvegicus [4]): 12 h; Activity (Canis familiaris [7]): 5 mL/min |
| FC(F)(F)c1cnc(-c2cccnc2)[nH]1 | – | – | – | – | – | – | – | – | – | – | – | Activity (Rattus norvegicus [10]): 21 mmHg; Activity (Rattus norvegicus [11]): 39 mmHg; Activity (Rattus norvegicus [12]): 48 mmHg; Time (Rattus norvegicus [13]): 2 h; Time (Rattus norvegicus [14]): 6 h; Time (Rattus norvegicus [15]): >6 h; Activity (Canis familiaris [16]): 99 mL/min; Activity (Canis familiaris [17]): 93 mL/min; Activity (Canis familiaris [18]): 76 mL/min; Activity (Canis familiaris [19]): 82 bpm |
| CC(C)(C)NC[C@H](O)COc1ncccc1-c1ncc(C(F)(F)F)[nH]1 | – | – | – | – | 0.125 | 0.25 | 8 | 6 | 4 | 9 | – | – |
| CC(C)(C)NC[C@H](O)COc1ccc(-c2ncc(C(F)(F)F)[nH]2)cn1 | – | – | – | – | 0.058 | 0.0025 | 40 | 0 | 103 | – | >7 | Activity (Canis familiaris [25]): 38 mL/min |
| CC(C)(C)NC[C@H](O)COc1ccccc1-c1ncc(C(F)(F)F)[nH]1 | – | – | – | – | 0.1 | 0.3 | 32 | 0 | 35 | 33 | <7 | – |
| CC(C)(C)NC[C@H](O)COc1cccc(-c2ncc(C(F)(F)F)[nH]2)c1 | – | – | – | – | 0.086 | > 1 | 40 | 5 | – | – | >7 | – |
| CC(C)(C)NC[C@@H](O)COc1ccc(-c2ncc(C(F)(F)F)[nH]2)cc1 | 16 | 22 | 2 | 6 | > 1 | 0.102 | – | 49 | – | – | – | Time (Rattus norvegicus [26]): 8 h |
| CC(C)(C)NCC(O)COc1ccc(-c2nc(C(F)(F)F)c[nH]2)cc1 (racemic) | 36 | 49 | 18 | 18 | 0.036 | 0.009 | – | – | 9 | 15 | – | Activity (Rattus norvegicus [1]): 21 mmHg; Time (Rattus norvegicus [4]): 7 h; Activity (Canis familiaris [27]): 52 mL/min; Activity (Canis familiaris [28]): 58 mL/min; Activity (Canis familiaris [29]): 63 mL/min; Activity (Canis familiaris [30]): 10 mL/min; Activity (Canis familiaris [31]): 17 mL/min; Activity (Canis familiaris [32]): 17 mL/min |
| NNc1nncc2ccccc12 [HYDRALAZINE] | – | – | – | – | – | – | – | – | 66 | – | – | Activity (Rattus norvegicus [10]): 30 mmHg; Activity (Rattus norvegicus [11]): 40 mmHg; Time (Rattus norvegicus [13]): 6 h; Time (Rattus norvegicus [14]): >7 h |
